PubChem BioAssay (NCI)
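Five concentrations, 48 hours, 96-well plates. At the GI50, growth is halved. The concentration for full growth arrest is given as TGI.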

What was measured:
Test in all cases: growth of human tumour cells (NCI), 48 h
CAKI-1 renal = tested on: CAKI-1 renal
NCI-H522 lung = tested on: NCI-H522 lung
PC-3 prostate = tested on: PC-3 prostate
NCI/ADR-RES ovarian = tested on: NCI/ADR-RES ovarian
NCI-H23 lung = tested on: NCI-H23 lung
HL-60(TB) leukemia = tested on: HL-60(TB) leukemia
HT29 colon = tested on: HT29 colon
UO-31 renal = tested on: UO-31 renal
A498 renal = tested on: A498 renal
SF-539 CNS = tested on: SF-539 CNS
TK-10 renal = tested on: TK-10 renal
SW-620 colon = tested on: SW-620 colon
T-47D breast = tested on: T-47D breast
A549 NSCLC = tested on: A549 NSCLC
SK-MEL-28 melanoma = tested on: SK-MEL-28 melanoma
HOP-62 NSCLC = tested on: HOP-62 NSCLC
NCI-H460 lung = tested on: NCI-H460 lung
COLO 205 colon = tested on: COLO 205 colon
SN12C renal = tested on: SN12C renal
MDA-MB-435 = tested on: MDA-MB-435
M14 melanoma = tested on: M14 melanoma
786-0 renal = tested on: 786-0 renal
SNB-75 CNS = tested on: SNB-75 CNS
K-562 leukemia = tested on: K-562 leukemia
HCC-2998 colon = tested on: HCC-2998 colon
ACHN renal = tested on: ACHN renal
IGROV1 ovarian = tested on: IGROV1 ovarian
SNB-19 CNS = tested on: SNB-19 CNS
OVCAR-5 ovarian = tested on: OVCAR-5 ovarian
MDA-MB-231 breast = tested on: MDA-MB-231 breast
UACC-62 melanoma = tested on: UACC-62 melanoma
KM12 colon = tested on: KM12 colon
NCI-H226 lung = tested on: NCI-H226 lung
DU-145 prostate = tested on: DU-145 prostate
MCF7 breast = tested on: MCF7 breast
OVCAR-4 ovarian = tested on: OVCAR-4 ovarian
HS 578T breast = tested on: HS 578T breast
CCRF-CEM leukemia = tested on: CCRF-CEM leukemia
SF-295 CNS = tested on: SF-295 CNS
SF-268 CNS = tested on: SF-268 CNS
U251 CNS = tested on: U251 CNS
SK-OV-3 ovarian = tested on: SK-OV-3 ovarian
HOP-92 NSCLC = tested on: HOP-92 NSCLC
BT-549 breast = tested on: BT-549 breast
SK-MEL-2 melanoma = tested on: SK-MEL-2 melanoma
UACC-257 melanoma = tested on: UACC-257 melanoma
MALME-3M melanoma = tested on: MALME-3M melanoma
SK-MEL-5 melanoma = tested on: SK-MEL-5 melanoma
HCT-15 colon = tested on: HCT-15 colon
MOLT-4 leukemia = tested on: MOLT-4 leukemia
OVCAR-3 ovarian = tested on: OVCAR-3 ovarian
OVCAR-8 ovarian = tested on: OVCAR-8 ovarian
LOX IMVI melanoma = tested on: LOX IMVI melanoma
HCT-116 colon = tested on: HCT-116 colon
EKVX NSCLC = tested on: EKVX NSCLC
RPMI-8226 leukemia = tested on: RPMI-8226 leukemia
SR leukemia = tested on: SR leukemia

Q: `CC(=Nc1ccccc1)C1=C(O)C(Cc2ccccc2)NC1=O` (configuration not stated) was tested. Which GI50 (CAKI-1 renal) did it give?
A: 29.9 nM

Q: And the TGI (CAKI-1 renal)?
A: > 76400 nM

Q: And the GI50 (NCI-H522 lung)?
A: 21.6 nM

Q: And the TGI (NCI-H522 lung)?
A: 64.5 nM

Q: What about the GI50 (PC-3 prostate) of the same compound?
A: 36 nM

Q: And the TGI (PC-3 prostate)?
A: > 100000 nM

Q: And the GI50 (NCI/ADR-RES ovarian)?
A: 30 nM

Q: And the TGI (NCI/ADR-RES ovarian)?
A: 117 nM

Q: And the GI50 (NCI-H23 lung)?
A: 66.9 nM

Q: And the TGI (NCI-H23 lung)?
A: > 100000 nM

Q: And the GI50 (HL-60(TB) leukemia)?
A: 26.5 nM

Q: What about the TGI (HL-60(TB) leukemia) of the same compound?
A: 67.1 nM

Q: What about the GI50 (HT29 colon) of the same compound?
A: 33.1 nM

Q: What about the TGI (HT29 colon) of the same compound?
A: 151 nM

Q: And the GI50 (UO-31 renal)?
A: 83.2 nM

Q: And the TGI (UO-31 renal)?
A: > 100000 nM

Q: What about the GI50 (A498 renal) of the same compound?
A: 30.7 nM

Q: And the TGI (A498 renal)?
A: 259 nM

Q: And the GI50 (SF-539 CNS)?
A: 43.9 nM

Q: What about the TGI (SF-539 CNS) of the same compound?
A: 501 nM

Q: And the GI50 (TK-10 renal)?
A: 42 nM

Q: What about the TGI (TK-10 renal) of the same compound?
A: > 100000 nM

Q: And the GI50 (SW-620 colon)?
A: 32.8 nM

Q: And the TGI (SW-620 colon)?
A: > 100000 nM

Q: What about the GI50 (T-47D breast) of the same compound?
A: > 100000 nM

Q: And the TGI (T-47D breast)?
A: > 100000 nM

Q: And the GI50 (A549 NSCLC)?
A: 52 nM

Q: And the TGI (A549 NSCLC)?
A: > 100000 nM

Q: And the GI50 (SK-MEL-28 melanoma)?
A: 71.2 nM

Q: What about the TGI (SK-MEL-28 melanoma) of the same compound?
A: > 100000 nM

Q: And the GI50 (HOP-62 NSCLC)?
A: 43.5 nM

Q: And the GI50 (NCI-H460 lung)?
A: 37.5 nM

Q: And the TGI (NCI-H460 lung)?
A: 1260 nM

Q: What about the GI50 (COLO 205 colon) of the same compound?
A: 27.9 nM

Q: What about the TGI (COLO 205 colon) of the same compound?
A: 82.4 nM

Q: And the GI50 (SN12C renal)?
A: 227 nM

Q: And the TGI (SN12C renal)?
A: > 100000 nM

Q: What about the GI50 (MDA-MB-435) of the same compound?
A: 19.6 nM

Q: What about the TGI (MDA-MB-435) of the same compound?
A: 52.8 nM

Q: And the GI50 (M14 melanoma)?
A: 24.8 nM

Q: And the TGI (M14 melanoma)?
A: 102 nM

Q: And the GI50 (786-0 renal)?
A: 58.6 nM

Q: And the GI50 (SNB-75 CNS)?
A: 24.6 nM

Q: And the TGI (SNB-75 CNS)?
A: 78.8 nM

Q: And the GI50 (K-562 leukemia)?
A: 20.3 nM

Q: What about the TGI (K-562 leukemia) of the same compound?
A: > 100000 nM

Q: And the GI50 (HCC-2998 colon)?
A: 77.9 nM

Q: And the TGI (HCC-2998 colon)?
A: 640 nM

Q: What about the GI50 (ACHN renal) of the same compound?
A: 62.5 nM

Q: What about the TGI (ACHN renal) of the same compound?
A: > 100000 nM

Q: And the GI50 (IGROV1 ovarian)?
A: 65.1 nM

Q: What about the TGI (IGROV1 ovarian) of the same compound?
A: > 100000 nM

Q: What about the GI50 (SNB-19 CNS) of the same compound?
A: 76.5 nM

Q: And the TGI (SNB-19 CNS)?
A: > 100000 nM

Q: And the GI50 (OVCAR-5 ovarian)?
A: 93.8 nM

Q: And the TGI (OVCAR-5 ovarian)?
A: > 100000 nM

Q: And the GI50 (MDA-MB-231 breast)?
A: 224 nM

Q: What about the TGI (MDA-MB-231 breast) of the same compound?
A: > 100000 nM

Q: And the GI50 (UACC-62 melanoma)?
A: 40.4 nM

Q: And the TGI (UACC-62 melanoma)?
A: > 100000 nM

Q: What about the GI50 (KM12 colon) of the same compound?
A: 27.8 nM

Q: And the TGI (KM12 colon)?
A: 266 nM

Q: What about the GI50 (NCI-H226 lung) of the same compound?
A: 244 nM

Q: And the TGI (NCI-H226 lung)?
A: > 100000 nM

Q: And the GI50 (DU-145 prostate)?
A: 133 nM

Q: What about the TGI (DU-145 prostate) of the same compound?
A: 1290 nM

Q: What about the GI50 (MCF7 breast) of the same compound?
A: 36.7 nM

Q: And the TGI (MCF7 breast)?
A: > 100000 nM

Q: And the GI50 (OVCAR-4 ovarian)?
A: 115 nM

Q: What about the TGI (OVCAR-4 ovarian) of the same compound?
A: > 100000 nM

Q: And the GI50 (HS 578T breast)?
A: 35.4 nM

Q: And the TGI (HS 578T breast)?
A: > 100000 nM

Q: What about the GI50 (CCRF-CEM leukemia) of the same compound?
A: 43.1 nM

Q: What about the TGI (CCRF-CEM leukemia) of the same compound?
A: > 100000 nM

Q: And the GI50 (SF-295 CNS)?
A: 23.8 nM

Q: What about the TGI (SF-295 CNS) of the same compound?
A: 72.1 nM

Q: And the GI50 (SF-268 CNS)?
A: 58.6 nM

Q: And the TGI (SF-268 CNS)?
A: > 76200 nM

Q: What about the GI50 (U251 CNS) of the same compound?
A: 37.3 nM

Q: What about the TGI (U251 CNS) of the same compound?
A: > 37200 nM

Q: And the GI50 (SK-OV-3 ovarian)?
A: 53.7 nM

Q: And the TGI (SK-OV-3 ovarian)?
A: > 61800 nM

Q: What about the GI50 (HOP-92 NSCLC) of the same compound?
A: 51.5 nM

Q: And the TGI (HOP-92 NSCLC)?
A: > 100000 nM

Q: What about the GI50 (BT-549 breast) of the same compound?
A: 57.8 nM

Q: And the TGI (BT-549 breast)?
A: 501 nM

Q: And the GI50 (SK-MEL-2 melanoma)?
A: 44.7 nM

Q: And the TGI (SK-MEL-2 melanoma)?
A: > 31500 nM

Q: What about the GI50 (UACC-257 melanoma) of the same compound?
A: > 100000 nM

Q: What about the TGI (UACC-257 melanoma) of the same compound?
A: > 100000 nM

Q: What about the GI50 (MALME-3M melanoma) of the same compound?
A: 18 nM

Q: What about the TGI (MALME-3M melanoma) of the same compound?
A: > 100000 nM

Q: What about the GI50 (SK-MEL-5 melanoma) of the same compound?
A: 44.6 nM

Q: What about the TGI (SK-MEL-5 melanoma) of the same compound?
A: 2630 nM

Q: And the GI50 (HCT-15 colon)?
A: 42.5 nM

Q: What about the TGI (HCT-15 colon) of the same compound?
A: > 48100 nM

Q: What about the GI50 (MOLT-4 leukemia) of the same compound?
A: 75.3 nM

Q: What about the TGI (MOLT-4 leukemia) of the same compound?
A: > 100000 nM

Q: And the GI50 (OVCAR-3 ovarian)?
A: 23.7 nM

Q: And the TGI (OVCAR-3 ovarian)?
A: 53.5 nM

Q: What about the GI50 (OVCAR-8 ovarian) of the same compound?
A: 94.5 nM

Q: And the TGI (OVCAR-8 ovarian)?
A: > 100000 nM

Q: What about the GI50 (LOX IMVI melanoma) of the same compound?
A: 57.4 nM

Q: What about the TGI (LOX IMVI melanoma) of the same compound?
A: > 34000 nM

Q: What about the GI50 (HCT-116 colon) of the same compound?
A: 36.3 nM

Q: What about the TGI (HCT-116 colon) of the same compound?
A: 510 nM

Q: What about the GI50 (EKVX NSCLC) of the same compound?
A: 79.8 nM

Q: And the TGI (EKVX NSCLC)?
A: > 100000 nM

Q: And the GI50 (RPMI-8226 leukemia)?
A: 51.5 nM

Q: And the TGI (RPMI-8226 leukemia)?
A: > 100000 nM

Q: What about the GI50 (SR leukemia) of the same compound?
A: 23.1 nM

Q: And the TGI (SR leukemia)?
A: > 30900 nM
